This note sets out measurements from US20230416329A1, “A PEPTIDE WITH DISULFIDE BONDS AND INHIBITORY ACTIVITY AGAINST SERINE PROTEASES, DERIVED HYBRID PEPTIDES THEREOF, AND USES THEREOF” (INSTITUTE OF MATERIA MEDICA , CHINESE ACADEMY OF MEDICAL …, priority 2020, published 2023).

The target in one data set is chymotrypsin (Bos taurus, UniProt P00766). As to the kind of experiment: in vitro. How it is done: FIG. 18. […] At different time point, 25 μL aliquots was taken out, and 10% (v/v) TFA was added to terminate the reaction.
Mix by centrifugation at 8000 rpm for 30 seconds.
Arrange a certain volume of 0.05 μg/μL chymotrypsin solution in another sterile EP. Incubate the EP tubes containing peptides and enzymes at 37° C. for 5 min, and add 3 μL of […] solution to each EP tube containing peptides and mix well. Start timing and extract 25 μL of reaction solution at 1.5, 3.0, 4.5, 6.0 and 9.0 min later, respectively. Add 3.75 μL of 10% TFA to terminate the reaction and mix well by centrifugation at 8000 rpm for 30 seconds.
Arrange a certain volume of 0.05 μg/μL chymotrypsin solution in another sterile EP. Incubate the EP tubes containing peptides and enzymes at 37° C. for 5 min, and then add 4.5 μL of chymotrypsin solution to each EP tube containing peptides and mix well. Start timing and extract 25 μL of reaction solution at 1.5, 3.0, 4.5, 6.0, 9.0, 15.0, 30.0, and 60.0 min later, respectively. Add 3.75 μL of 10% TFA to terminate the reaction and mix well by centrifugation at 8000 rpm for 30 seconds.
Referring to the experimental method in Example 5, in vitro stability of salmon Calcitonin analogs with oral administration activity to the enzymatic hydrolysis by trypsin, chymotrypsin and elastase were performed.
Referring to the experimental method in Example 5, in vitro stability of IL-17A inhibitory peptides towards the enzymatic hydrolysis by trypsin, chymotrypsin and elastase were performed.

A further data set concerns the target T1, bovine trypsin (Bos taurus, UniProt P00760).
T1 sequence (P00760 24-246): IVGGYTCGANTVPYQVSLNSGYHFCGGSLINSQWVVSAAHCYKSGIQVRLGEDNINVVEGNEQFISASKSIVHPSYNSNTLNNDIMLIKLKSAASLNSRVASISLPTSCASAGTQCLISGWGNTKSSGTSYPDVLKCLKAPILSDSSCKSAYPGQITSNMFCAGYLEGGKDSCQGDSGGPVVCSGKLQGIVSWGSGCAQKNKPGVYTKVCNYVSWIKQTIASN
As to the kind of experiment: Trypsin inhibitory activity of peptides (BApNA hydrolysis, OD405; IC50, Ki, residual activity). The conditions noted are these: for Ki: Ki=IC50/(1+S/Km), Km 0.33 mM, read-out: Ki; for IC50: trypsin 50 nM, BApNA 1.22 mM, read-out: IC50. It counts as biochemical. Summed up: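 Trypsin (50 nM final) preincubated with peptides at 37 °C in 50 mM Tris-HCl pH 7.8, 20 mM CaCl2; BApNA added (1.22 mM final), 260 min at 37 °C, then OD405 read. Residual activity from enzyme-only and substrate-only controls; IC50 fitted and converted to Ki via Ki=IC50/(1+S/Km), Km measured separately for BApNA.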

Where [1] appears, read: isolated enzyme chymotrypsin, pH 7.8, Remaining peak area (%)/chymotrypsin.

Bridge positions count the residues as written; N and C are the ends. Square brackets hold non-standard residues; d marks the D form. Peptide text beside a SMILES is read from it. Nle = CCCC[C@H](N)C(=O)O

As usually defined, the fraction remaining is the share of the starting amount still present when the sample was taken. Low readings indicate more turnover, high ones less turnover. On to `CC[C@H](C)[C@H](N)C(=O)N[C@@H](Cc1c[nH]cn1)C(=O)N[C@H](C(=O)N[C@H](C(=O)N[C@H](C(=O)N1CCC[C@H]1C(=O)N[C@@H](C)C(=O)N[C@@H](CC(=O)O)C(=O)N[C@@H](CC(C)C)C(=O)N[C@@H](Cc1c[nH]c2ccccc12)C(=O)N[C@@H](CC(=O)O)C(=O)N[C@@H](Cc1c[nH]c2ccccc12)C(=O)N[C@H](C(=O)N[C@@H](CC(N)=O)C(=O)NCC(=O)N[C@@H](Cc1ccccc1)C(=O)N[C@H]1CSSC[C@@H](C(=O)N[C@@H](Cc2ccc(O)cc2)C(=O)NCC(=O)O)NC(=O)[C@H](CCC(N)=O)NC(=O)[C@@H]2CCCN2C(=O)[C@@H]2CCCN2C(=O)[C@H]([C@@H](C)CC)NC(=O)[C@H](CO)NC(=O)[C@H](Cc2ccc(O)cc2)NC(=O)[C@H]([C@@H](C)O)NC1=O)[C@@H](C)CC)[C@@H](C)CC)[C@@H](C)O)C(C)C` [17A-CH] (H-IHVTIPADLWDWINGFCTYSIPPQCYG-OH; disulfide 17-25), for which the “stability towards chymotrypsin hydrolysis (in words)” value on chymotrypsin is “tolerated to the degradation of corresponding serine proteases”. In addition, the “Remaining peak area (%)/chymotrypsin” value at chymotrypsin (0 h) was found to be 100.0 ± 0.0%. On chymotrypsin (setting [1]), this compound had a fraction remaining at 0.025 h, 60 μM of 41.6 ± 3%; a fraction remaining at 0.05 h, 60 μM of 41.7 ± 6%; a fraction remaining at 0.075 h, 60 μM of 38.8 ± 3.4%; a fraction remaining at 0.1 h, 60 μM of 45.1 ± 8.5%. On chymotrypsin (setting [1]), this compound showed a share remaining at 0.15 h, 60 μM of 44.3 ± 7.6%; an amount remaining at 0.25 h, 60 μM of 35.2 ± 3.8%; a share remaining at 0.5 h, 60 μM of 30.5 ± 2.5%; a share remaining at 1 h, 60 μM of 35.7 ± 3%.

By Ki is commonly meant the dissociation constant of the complex between target and ligand, obtained from inhibition or displacement. By IC50 is commonly meant the point on the concentration scale where inhibition reaches its midpoint. `CC[C@H](C)[C@@H]1NC(=O)[C@@H]2CCCN2C(=O)[C@@H]2CCCN2C(=O)[C@H]([C@@H](C)CC)NC(=O)[C@H](CO)NC(=O)[C@H](CCCCN)NC(=O)[C@H]([C@@H](C)O)NC(=O)[C@H](C)NC(=O)[C@H](CCCNC(=N)N)NC(=O)[C@H](CO)NC(=O)[C@@H](N)CSSC[C@@H](C(=O)N[C@@H](Cc2ccccc2)C(=O)O)NC1=O` [BT75] (H-CSRATKSIPPICF-OH; disulfide 1-12; N-terminus and C-terminus assumed): on bovine trypsin, the “inhibitory activity against trypsin (in words)” value (“inhibitory activity” below) was “excellent trypsin inhibitory activities”, the Ki is 8.5 nM and the half-inhibitory concentration (IC50) amounted to 40 nM.

Regarding `CC[C@H](C)[C@@H]1NC(=O)[C@@H]2CCCN2C(=O)[C@@H]2CCCN2C(=O)[C@H]([C@@H](C)CC)NC(=O)[C@H](CO)NC(=O)[C@H](CCCCN)NC(=O)[C@H]([C@@H](C)O)NC(=O)[C@H](C)NC(=O)[C@H](CCCNC(=N)N)NC(=O)[C@H](CCCNC(=N)N)NC(=O)[C@@H](N)CSSC[C@@H](C(=O)N[C@@H](Cc2ccccc2)C(=O)O)NC1=O` [BT76] (H-CRRATKSIPPICF-OH; disulfide 1-12; N-terminus and C-terminus assumed), on bovine trypsin, the “inhibitory activity” value was “excellent trypsin inhibitory activities”, the Ki was 10 nM and the concentration for half-maximal inhibition (IC50) worked out at 50 nM.

Turning to `CC[C@H](C)[C@@H]1NC(=O)[C@@H]2CCCN2C(=O)[C@@H]2CCCN2C(=O)[C@H]([C@@H](C)CC)NC(=O)[C@H](CO)NC(=O)[C@H](CCCCN)NC(=O)[C@H]([C@@H](C)O)NC(=O)[C@H](C)NC(=O)[C@H](CCCNC(=N)N)NC(=O)[C@H](CCCCN)NC(=O)[C@@H](N)CSSC[C@@H](C(=O)N[C@@H](Cc2ccccc2)C(=O)O)NC1=O` [BT77] (H-CKRATKSIPPICF-OH; disulfide 1-12; N-terminus and C-terminus assumed), at bovine trypsin, the “inhibitory activity” value was “excellent trypsin inhibitory activities”, the inhibitory constant (Ki) came out at 8.5 nM and the IC50 came to 40 nM.

Regarding `CC[C@H](C)[C@@H]1NC(=O)[C@@H]2CCCN2C(=O)[C@@H]2CCCN2C(=O)[C@H]([C@@H](C)CC)NC(=O)[C@H](CO)NC(=O)[C@H](CCCCN)NC(=O)[C@H]([C@@H](C)O)NC(=O)[C@H](C)NC(=O)[C@H](CCCNC(=N)N)NC(=O)[C@H](CCC(=O)O)NC(=O)[C@@H](N)CSSC[C@@H](C(=O)N[C@@H](Cc2ccccc2)C(=O)O)NC1=O` [BT78] (H-CERATKSIPPICF-OH; disulfide 1-12; N-terminus and C-terminus assumed), at bovine trypsin, the “inhibitory activity” value was “excellent trypsin inhibitory activities” and the IC50 turned out to be 30 nM.

Regarding `CC[C@H](C)[C@@H]1NC(=O)[C@@H]2CCCN2C(=O)[C@@H]2CCCN2C(=O)[C@H]([C@@H](C)CC)NC(=O)[C@H](CO)NC(=O)[C@H](CCCCN)NC(=O)[C@H]([C@@H](C)O)NC(=O)[C@H](C)NC(=O)[C@H](CCCNC(=N)N)NC(=O)[C@H](CCC(N)=O)NC(=O)[C@@H](N)CSSC[C@@H](C(=O)N[C@@H](Cc2ccccc2)C(=O)O)NC1=O` [BT79] (H-CQRATKSIPPICF-OH; disulfide 1-12; N-terminus and C-terminus assumed), on bovine trypsin, the “inhibitory activity” value was “excellent trypsin inhibitory activities”, the inhibitory constant (Ki) stood at 10 nM and the IC50 amounted to 50 nM.

For the compound `CCCC[C@@H]1NC(=O)[C@@H](N)CSSC[C@@H](C(=O)N[C@@H](Cc2ccccc2)C(=O)O)NC(=O)[C@H]([C@@H](C)CC)NC(=O)[C@@H]2CCCN2C(=O)[C@@H]2CCCN2C(=O)[C@H]([C@@H](C)CC)NC(=O)[C@H](CO)NC(=O)[C@H](CCCCN)NC(=O)[C@H]([C@@H](C)O)NC(=O)[C@H](C)NC(=O)[C@H](CCCNC(=N)N)NC1=O` [BT80] (H-C[Nle]RATKSIPPICF-OH; disulfide 1-12; N-terminus and C-terminus assumed), the inhibition constant (Ki) on bovine trypsin was found to be 20 nM.
